Assays:
Format in all cases: in vivo
[1] = tested on: wheat (Triticum aestivum); assay: Test A postemergence; conditions: Triticum aestivum, post-emergence, 240 h, Postemergence, read-out: Wheat plant response rating (0 to 100 scale); for plant injury at 125 g/ha: 125 g ai/ha, visual rating about 10 d after treatment; for plant injury at 31 g/ha: 31 g ai/ha, 0 is no effect, 100 is complete control
Summary of the method: (§1)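 In a loam soil and sand blend, planted seeds got a preemergence directed soil spray, and young plants at the one- to two-leaf stage, 2–10 cm high, got a postemergence application; ~10 d greenhouse hold; injury rated visually, 0 = none, 100 = complete control.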

[2] = tested on: blackgrass (Alopecurus myosuroides); assay: Test A postemergence; conditions: Alopecurus myosuroides, post-emergence, 240 h, Postemergence, read-out: Blackgrass plant response rating (0 to 100 scale); for pest or weed control at 125 g/ha: 125 g ai/ha, visual rating about 10 d after treatment; for pest or weed control at 31 g/ha: 31 g ai/ha, 0 is no effect, 100 is complete control
Summary of the method: as §1

[3] = tested on: pigweed (Amaranthus retroflexus); assay: Test A postemergence; conditions: Amaranthus retroflexus, post-emergence, 240 h, Postemergence, read-out: Pigweed plant response rating (0 to 100 scale); for pest or weed control at 125 g/ha: 125 g ai/ha, visual rating about 10 d after treatment; for pest or weed control at 31 g/ha: 31 g ai/ha, 0 is no effect, 100 is complete control
Summary of the method: as §1

corn (Zea mays) = assay: Test A postemergence; conditions: Zea mays, post-emergence, 240 h, Postemergence, read-out: Corn plant response rating (0 to 100 scale); for plant injury at 125 g/ha: 125 g ai/ha, visual rating about 10 d after treatment; for plant injury at 31 g/ha: 31 g ai/ha, 0 is no effect, 100 is complete control
Summary of the method: as §1

[4] = tested on: ragweed (common ragweed, Ambrosia elatior); assay: Test A postemergence; conditions: Ambrosia artemisiifolia, post-emergence, 240 h, Postemergence, read-out: Ragweed plant response rating (0 to 100 scale); for pest or weed control at 125 g/ha: 125 g ai/ha, visual rating about 10 d after treatment; for pest or weed control at 31 g/ha: 31 g ai/ha, 0 is no effect, 100 is complete control
Summary of the method: as §1

Kochia (Kochia scoparia) [5] = assay: Test A postemergence; conditions: Bassia scoparia, post-emergence, 240 h, Postemergence, read-out: Kochia plant response rating (0 to 100 scale); for pest or weed control at 125 g/ha: 125 g ai/ha, visual rating about 10 d after treatment; for pest or weed control at 31 g/ha: 31 g ai/ha, 0 is no effect, 100 is complete control
Summary of the method: as §1

[6] = tested on: ryegrass, Italian (Italian ryegrass, Lolium multiflorum); assay: Test A postemergence; conditions: Lolium multiflorum, post-emergence, 240 h, Postemergence, read-out: Ryegrass, Italian plant response rating (0 to 100 scale); for pest or weed control at 125 g/ha: 125 g ai/ha, visual rating about 10 d after treatment; for pest or weed control at 31 g/ha: 31 g ai/ha, 0 is no effect, 100 is complete control
Summary of the method: as §1

[7] = tested on: Galium (catchweed bedstraw, Galium aparine); assay: Test A postemergence; conditions: Galium, post-emergence, 240 h, Postemergence, read-out: Galium plant response rating (0 to 100 scale); for pest or weed control at 125 g/ha: 125 g ai/ha, visual rating about 10 d after treatment; for pest or weed control at 31 g/ha: 31 g ai/ha, 0 is no effect, 100 is complete control
Summary of the method: as §1

[8] = tested on: giant foxtail (Setaria faberii); assay: Test A postemergence; conditions: Setaria faberi, post-emergence, 240 h, Postemergence, read-out: Foxtail, Giant plant response rating (0 to 100 scale); for pest or weed control at 125 g/ha: 125 g ai/ha, visual rating about 10 d after treatment; for pest or weed control at 31 g/ha: 31 g ai/ha, 0 is no effect, 100 is complete control
Summary of the method: as §1

[9] = tested on: barnyardgrass (Echinochloa crus-galli); assay: Test A postemergence; conditions: Echinochloa crus-galli, post-emergence, 240 h, Postemergence; for pest or weed control at 125 g/ha: 125 g ai/ha, visual rating about 10 d after treatment, read-out: Barnyardgrass plant response rating (0 to 100 scale, 0 no effect, 100 complete control); for pest or weed control at 31 g/ha: 31 g ai/ha, 0 is no effect, 100 is complete control, read-out: Barnyardgrass plant response rating (0 to 100 scale)
Summary of the method: as §1

[10] = tested on: pigweed (Amaranthus retroflexus); assay: Test A preemergence; conditions: Amaranthus retroflexus, pre-emergence, 240 h, 0 to 100 scale where 0 is no effect and 100 is complete control, read-out: Pigweed plant response rating; for pest or weed control at 31 g/ha: 31 g ai/ha, Preemergence; for pest or weed control at 125 g/ha: 125 g ai/ha, preemergence, visual injury rating, approximately 10 d
[11] = tested on: ragweed (common ragweed, Ambrosia elatior); assay: Test A preemergence; conditions: Ambrosia artemisiifolia, pre-emergence, 240 h, 0 to 100 scale where 0 is no effect and 100 is complete control, read-out: Ragweed plant response rating; for pest or weed control at 31 g/ha: 31 g ai/ha, Preemergence; for pest or weed control at 125 g/ha: 125 g ai/ha, preemergence, visual injury rating, approximately 10 d
Summary of the method: as §1

Kochia (Kochia scoparia) [12] = assay: Test A preemergence; conditions: Bassia scoparia, pre-emergence, 240 h, 0 to 100 scale where 0 is no effect and 100 is complete control, read-out: Kochia plant response rating; for pest or weed control at 31 g/ha: 31 g ai/ha, Preemergence; for pest or weed control at 125 g/ha: 125 g ai/ha, preemergence, visual injury rating, approximately 10 d
Summary of the method: as §1

[13] = tested on: ryegrass, Italian (Italian ryegrass, Lolium multiflorum); assay: Test A preemergence; conditions: Lolium multiflorum, pre-emergence, 240 h, 0 to 100 scale where 0 is no effect and 100 is complete control, read-out: Ryegrass, Italian plant response rating; for pest or weed control at 31 g/ha: 31 g ai/ha, Preemergence; for pest or weed control at 125 g/ha: 125 g ai/ha, preemergence, visual injury rating, approximately 10 d
Summary of the method: as §1

[14] = tested on: giant foxtail (Setaria faberii); assay: Test A preemergence; conditions: Setaria faberi, pre-emergence, 240 h, 0 to 100 scale where 0 is no effect and 100 is complete control, read-out: Foxtail, Giant plant response rating; for pest or weed control at 31 g/ha: 31 g ai/ha, Preemergence; for pest or weed control at 125 g/ha: 125 g ai/ha, preemergence, visual injury rating, approximately 10 d
Summary of the method: as §1

[15] = tested on: barnyardgrass (Echinochloa crus-galli); assay: Test A preemergence; conditions: Echinochloa crus-galli, pre-emergence, 240 h, 0 to 100 scale where 0 is no effect and 100 is complete control, read-out: Barnyardgrass plant response rating; for pest or weed control at 31 g/ha: 31 g ai/ha, Preemergence; for pest or weed control at 125 g/ha: 125 g ai/ha, preemergence, visual injury rating, approximately 10 d
Summary of the method: as §1

[16] = tested on: ducksalad (Heteranthera limosa); assay: Test B flooded paddy test; conditions: Heteranthera limosa, 250 g ai/ha, Flood; 0 to 100 scale where 0 is no effect and 100 is complete control; read-out: Ducksalad plant response rating
Summary of the method: (§2)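 Greenhouse paddy pots with 2-leaf stage plants received compound by direct addition to floodwater 3 cm deep, kept at that level. Scored visually at 13–15 d versus controls (0 no effect; 100 complete control).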

rice (Oryra sativa) = assay: Test B flooded paddy test; conditions: Oryza sativa, 250 g ai/ha, Flood; 0 to 100 scale where 0 is no effect and 100 is complete control; read-out: Rice plant response rating
Summary of the method: as §2

[17] = tested on: sedge, umbrella (small-flower umbrella sedge, Cyperus difformis); assay: Test B flooded paddy test; conditions: Cyperus difformis, 250 g ai/ha, Flood; 0 to 100 scale where 0 is no effect and 100 is complete control; read-out: Sedge, Umbrella plant response rating
Summary of the method: as §2

[18] = tested on: barnyardgrass (Echinochloa crus-galli); assay: Test B flooded paddy test; conditions: Echinochloa crus-galli, 250 g ai/ha, Flood; 0 to 100 scale where 0 is no effect and 100 is complete control; read-out: Barnyardgrass plant response rating
Summary of the method: as §2

| SMILES | plant injury at 125 g/ha [1] [%] | plant injury at 31 g/ha [1] [%] | pest or weed control at 125 g/ha [2] [%] | pest or weed control at 31 g/ha [2] [%] | pest or weed control at 125 g/ha [3] [%] | pest or weed control at 31 g/ha [3] [%] | plant injury at 125 g/ha (corn (Zea mays)) [%] | plant injury at 31 g/ha (corn (Zea mays)) [%] | pest or weed control at 125 g/ha [4] [%] | pest or weed control at 31 g/ha [4] [%] | pest or weed control at 125 g/ha (Kochia (Kochia scoparia) [5]) [%] | pest or weed control at 31 g/ha (Kochia (Kochia scoparia) [5]) [%] | pest or weed control at 125 g/ha [6] [%] | pest or weed control at 31 g/ha [6] [%] | pest or weed control at 125 g/ha [7] [%] | pest or weed control at 31 g/ha [7] [%] | pest or weed control at 125 g/ha [8] [%] | pest or weed control at 31 g/ha [8] [%] | pest or weed control at 125 g/ha [9] [%] | pest or weed control at 31 g/ha [9] [%] | also measured |
| --- | --- | --- | --- | --- | --- | --- | --- | --- | --- | --- | --- | --- | --- | --- | --- | --- | --- | --- | --- | --- | --- |
| O=C(Nc1cccc(F)c1F)C1C(=O)N(CC(F)F)CC1c1cccc(C(F)(F)F)c1 (stereo not drawn) [Compound 1294] | 0 | 0 | 0 | 0 | 0 | 0 | 0 | 0 | 0 | 0 | 0 | 0 | 0 | 0 | 0 | 0 | 20 | 0 | 20 | 0 | pest or weed control at 31 g/ha [10]: 0%; pest or weed control at 125 g/ha [10]: 0%; pest or weed control at 31 g/ha [11]: 0%; pest or weed control at 125 g/ha [11]: 0%; pest or weed control at 31 g/ha (Kochia (Kochia scoparia) [12]): 0%; pest or weed control at 125 g/ha (Kochia (Kochia scoparia) [12]): 0%; pest or weed control at 31 g/ha [13]: 0%; pest or weed control at 125 g/ha [13]: 0%; pest or weed control at 31 g/ha [14]: 0%; pest or weed control at 125 g/ha [14]: 30%; pest or weed control at 31 g/ha [15]: 0%; pest or weed control at 125 g/ha [15]: 50%; pest or weed control at 250 g/ha [16]: 0%; pest or weed control at 250 g/ha (rice (Oryra sativa)): 0%; pest or weed control at 250 g/ha [17]: 0%; pest or weed control at 250 g/ha [18]: 0% |
| O=C(Nc1ccccc1F)[C@H]1C(=O)N(CC(F)F)C[C@@H]1c1cccc(C(F)(F)F)c1 [Compound 1295] | 0 | 0 | 0 | 0 | 0 | 0 | 0 | 0 | 0 | 0 | 0 | 0 | 0 | 0 | 0 | 0 | 0 | 0 | 0 | 0 | pest or weed control at 31 g/ha [10]: 0%; pest or weed control at 125 g/ha [10]: 0%; pest or weed control at 31 g/ha [11]: 0%; pest or weed control at 125 g/ha [11]: 0%; pest or weed control at 31 g/ha (Kochia (Kochia scoparia) [12]): 0%; pest or weed control at 125 g/ha (Kochia (Kochia scoparia) [12]): 0%; pest or weed control at 31 g/ha [13]: 0%; pest or weed control at 125 g/ha [13]: 0%; pest or weed control at 31 g/ha [14]: 0%; pest or weed control at 125 g/ha [14]: 40%; pest or weed control at 31 g/ha [15]: 0%; pest or weed control at 125 g/ha [15]: 0%; pest or weed control at 250 g/ha [16]: 0%; pest or weed control at 250 g/ha (rice (Oryra sativa)): 0%; pest or weed control at 250 g/ha [17]: 0%; pest or weed control at 250 g/ha [18]: 0% |

From patent publication US12077503B2, “Substituted cyclic amides and their use as herbicides” (FMC CORPORATION, priority 2015, dated 2024)
